We go through 27 molecules from patent US9464082B2, “Aryl and arylalkyl substituted pyrazolyl and pyrimidinyl tricyclic enones as antioxidant inflammation modulators” (AbbVie Inc., priority 2014, dated 2016).

This assay deals with IFNγ-Induced NO Production. In words: Nitric Oxide Suppression Assay (Suppression of IFNγ-Induced NO Production). The assay is classed as cell-based. As to conditions: RAW264.7; RAW 264.7 mouse macrophage cells; 2 hour pre-treatment with compound (3 μM to 0.3 nM, 10 point curve); 20 ng/mL interferon gamma, ~18 hour; Griess detection; n=2-3 in duplicates. An outline of the steps:
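Mouse RAW 264.7 macrophages pre-treated 2 h at 37 °C with compound (3 μM to 0.3 nM, 10 points; DMSO ≤1%), then stimulated with 20 ng/mL interferon gamma for ~18 h. Supernatant nitrite measured by Griess reaction, absorbance 520–550 nm. IC50 from curve fit of signal normalised to IFNγ alone, mean n=2-3 in duplicate.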
(Griess reagent forms a coloured azo dye with nitrite.)
For `COC(=O)n1cc(-c2nc(C)nc3c2CC[C@H]2[C@H](C)C(=O)C(C#N)=C[C@]32c2ccccc2)cn1` [Example 98, methyl 4-[(6aS,7S,10aR)-9-cyano-2,7-dimethyl-8-oxo-10a-phenyl-5,6,6a,7,8,10a-hexahydrobenzo[h]quinazolin-4-yl]-1H-pyrazole-1-carboxylate], the IC50 (as a rule, the midpoint of a concentration-inhibition curve) came to 1.5 nM. As for `COC(=O)c1cccc([C@]23C=C(C#N)C(=O)[C@@H](C)[C@@H]2CCc2cnc(-c4ccccc4)nc23)c1` [Example 99, methyl 3-[(6aS,7S,10aR)-9-cyano-7-methyl-8-oxo-2-phenyl-6,6a,7,8-tetrahydrobenzo[h]quinazolin-10a(5H)-yl]benzoate], the IC50 came out at 23.4 nM. Consider `C[C@@H]1C(=O)C(C#N)=C[C@]2(c3cccc(C(=O)O)c3)c3nc(-c4ccccc4)ncc3CC[C@@H]12` [Example 100, 3-[(6aS,7S,10aR)-9-cyano-7-methyl-8-oxo-2-phenyl-6,6a,7,8-tetrahydrobenzo[h]quinazolin-10a(5H)-yl]benzoic acid], for which the IC50 was found to be 426 nM. Then `COC(=O)c1ccc(-c2ncc3c(n2)[C@@]2(c4cccc(C(=O)OC)c4)C=C(C#N)C(=O)[C@@H](C)[C@@H]2CC3)cc1` [Example 101, methyl 3-[(6aS,7S,10aR)-9-cyano-2-[4-(methoxycarbonyl)phenyl]-7-methyl-8-oxo-6,6a,7,8-tetrahydrobenzo[h]quinazolin-10a(5H)-yl]benzoate], with 45.6 nM; and `COc1nc(Cl)nc2c1CC[C@H]1[C@H](C)C(=O)C(C#N)=C[C@]21c1ccccc1` [Example 102, (6aS,7S,10aR)-2-chloro-4-methoxy-7-methyl-8-oxo-10a-phenyl-5,6,6a,7,8,10a-hexahydrobenzo[h]quinazoline-9-carbonitrile], with 3.97 nM; and `COc1nc(OC)c2c(n1)[C@@]1(c3ccccc3)C=C(C#N)C(=O)[C@@H](C)[C@@H]1CC2` [Example 103, (6aS,7S,10aR)-2,4-dimethoxy-7-methyl-8-oxo-10a-phenyl-5,6,6a,7,8,10a-hexahydrobenzo[h]quinazoline-9-carbonitrile], with 4.4 nM. Then `C[C@@H]1C(=O)C(C#N)=C[C@]2(c3cccc(C(=O)O)c3)c3nc(-c4ccc(C(=O)O)cc4)ncc3CC[C@@H]12` [Example 104, 3-[(6aS,7S,10aR)-2-(4-carboxyphenyl)-9-cyano-7-methyl-8-oxo-6,6a,7,8-tetrahydrobenzo[h]quinazolin-10a(5H)-yl]benzoic acid], with 924 nM; and `C[C@@H]1C(=O)C(C#N)=C[C@]2(c3ccccc3)C3=NN(C)[C@@H](c4ccccc4)[C@H]3CC[C@@H]12` [Example 105, (3R,3aR,5aS,6S,9aR)-2,6-dimethyl-7-oxo-3,9a-diphenyl-3,3a,4,5,5a,6,7,9a-octahydro-2H-benzo[g]indazole-8-carbonitrile], with 34.5 nM. With `C[C@@H]1C(=O)C(C#N)=C[C@]2(c3ccccc3)c3n[nH]c(-c4ccc(N)nc4)c3CC[C@@H]12` [Example 106, (5aS,6S,9aR)-3-(6-aminopyridin-3-yl)-6-methyl-7-oxo-9a-phenyl-4,5,5a,6,7,9a-hexahydro-2H-benzo[g]indazole-8-carbonitrile], the IC50 turned out to be 8.77 nM. For `Cc1nc(-c2ccc3nccn3c2)c2c(n1)[C@@]1(c3ccccc3)C=C(C#N)C(=O)[C@@H](C)[C@@H]1CC2` [Example 107, (6aS,7S,10aR)-4-(imidazo[1,2-a]pyridin-6-yl)-2,7-dimethyl-8-oxo-10a-phenyl-5,6,6a,7,8,10a-hexahydrobenzo[h]quinazoline-9-carbonitrile], the IC50 stood at 10.7 nM.

As to `Cc1nc(-c2ccc(O)cc2)c2c(n1)[C@@]1(c3ccccc3)C=C(C#N)C(=O)[C@@H](C)[C@@H]1CC2` [Example 108, (6aS,7S,10aR)-4-(4-hydroxyphenyl)-2,7-dimethyl-8-oxo-10a-phenyl-5,6,6a,7,8,10a-hexahydrobenzo[h]quinazoline-9-carbonitrile], the IC50 was found to be 3.63 nM.

For `Cc1nc(-c2cccc(O)c2)c2c(n1)[C@@]1(c3ccccc3)C=C(C#N)C(=O)[C@@H](C)[C@@H]1CC2` [Example 109, (6aS,7S,10aR)-4-(3-hydroxyphenyl)-2,7-dimethyl-8-oxo-10a-phenyl-5,6,6a,7,8,10a-hexahydrobenzo[h]quinazoline-9-carbonitrile], the IC50 was 2.87 nM. Then `Cc1nc(-c2cccc(CCCO)c2)c2c(n1)[C@@]1(c3ccccc3)C=C(C#N)C(=O)[C@@H](C)[C@@H]1CC2` [Example 110, (6aS,7S,10aR)-4-[3-(3-hydroxypropyl)phenyl]-2,7-dimethyl-8-oxo-10a-phenyl-5,6,6a,7,8,10a-hexahydrobenzo[h]quinazoline-9-carbonitrile], with 1.55 nM.

For `C[C@@H]1C(=O)C(C#N)=C[C@]2(c3ccccc3)c3nc(-c4cc(Br)ccc4O)ncc3CC[C@@H]12` [Example 111, (6aS,7S,10aR)-2-(5-bromo-2-hydroxyphenyl)-7-methyl-8-oxo-10a-phenyl-5,6,6a,7,8,10a-hexahydrobenzo[h]quinazoline-9-carbonitrile], the IC50 was determined as 12.3 nM. As to `C[C@@H]1C(=O)C(C#N)=C[C@]2(c3ccccc3)c3n[nH]c(-c4ccc(NS(C)(=O)=O)cc4)c3CC[C@@H]12` [Example 112, N-{4-[(5aS,6S,9aR)-8-cyano-6-methyl-7-oxo-9a-phenyl-4,5,5a,6,7,9a-hexahydro-2H-benzo[g]indazol-3-yl]phenyl}methanesulfonamide], the IC50 came to 66.4 nM.

For the molecule `C[C@@H]1C(=O)C(C#N)=C[C@]2(c3ccccc3)c3n[nH]c(-c4cccc(NS(C)(=O)=O)c4)c3CCC12` (stereo partly drawn) [Example 113, N-{3-[(6S,9aR)-8-cyano-6-methyl-7-oxo-9a-phenyl-4,5,5a,6,7,9a-hexahydro-2H-benzo[g]indazol-3-yl]phenyl}methanesulfonamide], the IC50 was 43 nM. As to `C[C@@H]1C(=O)C(C#N)=C[C@]2(c3ccccc3)c3nc(-c4ccc(O)cc4)ncc3CC[C@@H]12` [Example 114, (6aS,7S,10aR)-2-(4-hydroxyphenyl)-7-methyl-8-oxo-10a-phenyl-5,6,6a,7,8,10a-hexahydrobenzo[h]quinazoline-9-carbonitrile], the IC50 amounted to 5 nM. Then `C[C@@H]1C(=O)C(C#N)=C[C@]2(c3ccccc3)c3n[nH]c(-c4ccc(CCO)cc4)c3CC[C@@H]12` [Example 115, (5aS,6S,9aR)-3-[4-(2-hydroxyethyl)phenyl]-6-methyl-7-oxo-9a-phenyl-4,5,5a,6,7,9a-hexahydro-2H-benzo[g]indazole-8-carbonitrile], with 23.6 nM; and `C[C@@H]1C(=O)C(C#N)=C[C@]2(c3ccccc3)c3n[nH]c(-c4cccc(CCO)c4)c3CC[C@@H]12` [Example 116, (5aS,6S,9aR)-3-[3-(2-hydroxyethyl)phenyl]-6-methyl-7-oxo-9a-phenyl-4,5,5a,6,7,9a-hexahydro-2H-benzo[g]indazole-8-carbonitrile], with 9.25 nM. The figure for `C[C@@H]1C(=O)C(C#N)=C[C@]2(c3ccccc3)c3n[nH]c(-c4cnn(CCO)c4)c3CC[C@@H]12` [Example 117, (5aS,6S,9aR)-3-[1-(2-hydroxyethyl)-1H-pyrazol-4-yl]-6-methyl-7-oxo-9a-phenyl-4,5,5a,6,7,9a-hexahydro-2H-benzo[g]indazole-8-carbonitrile] is 17.4 nM. Regarding `Cc1nc(-c2cccc(-c3ccc(N)cc3)c2)c2c(n1)[C@@]1(c3ccccc3)C=C(C#N)C(=O)[C@@H](C)[C@@H]1CC2` [Example 118, (6aS,7S,10aR)-4-(4′-aminobiphenyl-3-yl)-2,7-dimethyl-8-oxo-10a-phenyl-5,6,6a,7,8,10a-hexahydrobenzo[h]quinazoline-9-carbonitrile], the IC50 turned out to be 4.62 nM. Then `Cc1nc(-c2cccc(-c3ccc(O)cc3)c2)c2c(n1)[C@@]1(c3ccccc3)C=C(C#N)C(=O)[C@@H](C)[C@@H]1CC2` [Example 119, (6aS,7S,10aR)-4-(4′-hydroxybiphenyl-3-yl)-2,7-dimethyl-8-oxo-10a-phenyl-5,6,6a,7,8,10a-hexahydrobenzo[h]quinazoline-9-carbonitrile], with 6.5 nM; and `C[C@@H]1C(=O)C(C#N)=C[C@]2(c3ccc(OCc4ccccc4)cc3)c3ncncc3CC[C@@H]12` [Example 120, (6aS,7S,10aR)-10a-[4-(benzyloxy)phenyl]-7-methyl-8-oxo-5,6,6a,7,8,10a-hexahydrobenzo[h]quinazoline-9-carbonitrile], with 5.44 nM; and `C[C@@H]1C(=O)C(C#N)=C[C@]2(c3ccc(O)cc3)c3ncncc3CC[C@@H]12` [Example 121, (6aS,7S,10aR)-10a-(4-hydroxyphenyl)-7-methyl-8-oxo-5,6,6a,7,8,10a-hexahydrobenzo[h]quinazoline-9-carbonitrile], with 8.47 nM.

In the case of `Cc1nc(-c2ccc(-c3ccncc3)cc2)c2c(n1)[C@@]1(c3ccccc3)C=C(C#N)C(=O)[C@@H](C)[C@@H]1CC2` [Example 122, (6aS,7S,10aR)-2,7-dimethyl-8-oxo-10a-phenyl-4-[4-(pyridin-4-yl)phenyl]-5,6,6a,7,8,10a-hexahydrobenzo[h]quinazoline-9-carbonitrile], the IC50 worked out at 12.7 nM. Then `C[C@@H]1C(=O)C(C#N)=C[C@]2(c3ccccc3)c3n[nH]c(-c4cccc(CCCO)c4)c3CC[C@@H]12` [Example 123, (5aS,6S,9aR)-3-[3-(3-hydroxypropyl)phenyl]-6-methyl-7-oxo-9a-phenyl-4,5,5a,6,7,9a-hexahydro-2H-benzo[g]indazole-8-carbonitrile], with 7.72 nM; and `Cc1nc(-c2cccc(-c3cccc(NS(C)(=O)=O)c3)c2)c2c(n1)[C@@]1(c3ccccc3)C=C(C#N)C(=O)[C@@H](C)[C@@H]1CC2` [Example 124, N-{3′-[(6aS,7S,10aR)-9-cyano-2,7-dimethyl-8-oxo-10a-phenyl-5,6,6a,7,8,10a-hexahydrobenzo[h]quinazolin-4-yl]biphenyl-3-yl}methanesulfonamide], with 1.35 nM.
